From PubChem BioAssay AID2060490 (Molecular Pharmacology Branch, DTP, NCI, 2025)

Test system: 885512-296-R-J2-PDC complex spheroid viability
Experiment: Anticancer human tumor 885512-296-R-J2-PDC patient-derived breast carcinoma cell line growth inhibition [GQUAD]
Conditions: for IC50: curve of first compound; for viability, T/C: stronger effect = lower value
Summary of the method: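 Multi-cell-type spheroids of tumor cells with HUVEC and mesenchymal stem cells, treated with drug combinations. Concentrations descend in half-log steps from near clinical Cmax, or from 10 microM where Cmax is unknown; viability read-out.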

[1] = second compound 0.0316 µM, first compound 0.0316 µM
[2] = second compound 0.0316 µM, first compound 0.1 µM
[3] = second compound 0.0316 µM, first compound 0.316 µM
[4] = second compound 0.0316 µM, first compound 1 µM
[5] = second compound 0.0316 µM, first compound 3.16 µM
[6] = second compound 0.0316 µM, first compound 10 µM
[7] = second compound 0.1 µM, first compound 0.0316 µM
[8] = second compound 0.1 µM, first compound 0.1 µM
[9] = second compound 0.1 µM, first compound 0.316 µM
[10] = second compound 0.1 µM, first compound 1 µM
[11] = second compound 0.1 µM, first compound 3.16 µM
[12] = second compound 0.1 µM, first compound 10 µM
[13] = second compound 0.316 µM, first compound 0.0316 µM
[14] = second compound 0.316 µM, first compound 0.1 µM
[15] = second compound 0.316 µM, first compound 0.316 µM
[16] = second compound 0.316 µM, first compound 1 µM
[17] = second compound 0.316 µM, first compound 3.16 µM
[18] = second compound 0.316 µM, first compound 10 µM
[19] = second compound 1 µM, first compound 0.0316 µM
[20] = second compound 1 µM, first compound 0.1 µM
[21] = second compound 1 µM, first compound 0.316 µM
[22] = second compound 1 µM, first compound 1 µM
[23] = second compound 1 µM, first compound 3.16 µM
[24] = second compound 1 µM, first compound 10 µM
[25] = second compound 3.16 µM, first compound 0.0316 µM
[26] = second compound 3.16 µM, first compound 0.1 µM
[27] = second compound 3.16 µM, first compound 0.316 µM
[28] = second compound 3.16 µM, first compound 1 µM
[29] = second compound 3.16 µM, first compound 3.16 µM
[30] = second compound 3.16 µM, first compound 10 µM
[31] = second compound 10 µM, first compound 0.0316 µM
[32] = second compound 10 µM, first compound 0.1 µM
[33] = second compound 10 µM, first compound 0.316 µM
[34] = second compound 10 µM, first compound 1 µM
[35] = second compound 10 µM, first compound 3.16 µM
[36] = second compound 10 µM, first compound 10 µM
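Also: spheroids exposed to the compounds for one week.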
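For viability, T/C in this document: percent of tumor spheroid viability relative to DMSO vehicle control wells.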

## C=CCn1c(=O)c2cnc(Nc3ccc(N4CCN(C)CC4)cc3)nc2n1-c1cccc(C(C)(C)O)n1 + Cc1cnc(CNC(=O)c2c(=O)c3ccc(N4CCCN(C)CC4)nc3n3c2sc2ccccc23)cn1
Second compound 0.0316 µM
  IC50: 198 nM
Second compound 0.1 µM
  IC50: 53.1 nM
Second compound 0.316 µM
  IC50: < 31.6 nM
Second compound 1 µM
  IC50: < 31.6 nM
Second compound 3.16 µM
  IC50: < 31.6 nM
Second compound 10 µM
  IC50: < 31.6 nM
[1]
  viability, T/C: 91.2%
[2]
  viability, T/C: 80.3%
[3]
  viability, T/C: 29.2%
[4]
  viability, T/C: 7.28%
[5]
  viability, T/C: 2.83%
[6]
  viability, T/C: 2.53%
[7]
  viability, T/C: 58.3%
[8]
  viability, T/C: 39.6%
[9]
  viability, T/C: 19.6%
[10]
  viability, T/C: 6.62%
[11]
  viability, T/C: 2.73%
[12]
  viability, T/C: 3.18%
[13]
  viability, T/C: 21.2%
[14]
  viability, T/C: 16.4%
[15]
  viability, T/C: 12%
[16]
  viability, T/C: 7.07%
[17]
  viability, T/C: 3%
[18]
  viability, T/C: 3.66%
[19]
  viability, T/C: 22.6%
[20]
  viability, T/C: 16.2%
[21]
  viability, T/C: 10.8%
[22]
  viability, T/C: 4.65%
[23]
  viability, T/C: 2.76%
[24]
  viability, T/C: 2.44%
[25]
  viability, T/C: 21.4%
[26]
  viability, T/C: 12.4%
[27]
  viability, T/C: 6.15%
[28]
  viability, T/C: 0.28%
[29]
  viability, T/C: 0.16%
[30]
  viability, T/C: 0.17%
[31]
  viability, T/C: 0.12%
[32]
  viability, T/C: 0.16%
[33]
  viability, T/C: 0.16%
[34]
  viability, T/C: 0.15%
[35]
  viability, T/C: 0.81%
[36]
  viability, T/C: 0.81%

## CCCS(=O)(=O)Nc1ccc(F)c(C(=O)c2c[nH]c3ncc(-c4ccc(Cl)cc4)cc23)c1F + Cc1cnc(CNC(=O)c2c(=O)c3ccc(N4CCCN(C)CC4)nc3n3c2sc2ccccc23)cn1
Second compound 0.0316 µM
  IC50: > 10000 nM
Second compound 0.1 µM
  IC50: > 10000 nM
Second compound 0.316 µM
  IC50: < 31.6 nM
Second compound 1 µM
  IC50: < 31.6 nM
Second compound 3.16 µM
  IC50: < 31.6 nM
Second compound 10 µM
  IC50: < 31.6 nM
[1]
  viability, T/C: 97.5%
[2]
  viability, T/C: 93.9%
[3]
  viability, T/C: 97.1%
[4]
  viability, T/C: 91.7%
[5]
  viability, T/C: 102%
[6]
  viability, T/C: 58.8%
[7]
  viability, T/C: 65.8%
[8]
  viability, T/C: 61%
[9]
  viability, T/C: 64.3%
[10]
  viability, T/C: 67.6%
[11]
  viability, T/C: 71.2%
[12]
  viability, T/C: 41.5%
[13]
  viability, T/C: 30.3%
[14]
  viability, T/C: 24.9%
[15]
  viability, T/C: 22.9%
[16]
  viability, T/C: 34.2%
[17]
  viability, T/C: 45.6%
[18]
  viability, T/C: 25.4%
[19]
  viability, T/C: 19.2%
[20]
  viability, T/C: 26%
[21]
  viability, T/C: 26.4%
[22]
  viability, T/C: 33.6%
[23]
  viability, T/C: 36%
[24]
  viability, T/C: 22.7%
[25]
  viability, T/C: 20.9%
[26]
  viability, T/C: 29.3%
[27]
  viability, T/C: 26.5%
[28]
  viability, T/C: 25.8%
[29]
  viability, T/C: 24.5%
[30]
  viability, T/C: 0.29%
[31]
  viability, T/C: 0.15%
[32]
  viability, T/C: 0.16%
[33]
  viability, T/C: 0.18%
[34]
  viability, T/C: 0.17%
[35]
  viability, T/C: 0.15%
[36]
  viability, T/C: 0.18%

## Cc1[nH]c2ccccc2c1CCNCc1ccc(/C=C/C(=O)NO)cc1 + Cc1cnc(CNC(=O)c2c(=O)c3ccc(N4CCCN(C)CC4)nc3n3c2sc2ccccc23)cn1
Second compound 0.0316 µM
  IC50: 15 nM
Second compound 0.1 µM
  IC50: < 0.999 nM
Second compound 0.316 µM
  IC50: < 0.999 nM
Second compound 1 µM
  IC50: < 0.999 nM
Second compound 3.16 µM
  IC50: < 0.999 nM
Second compound 10 µM
  IC50: < 0.999 nM
Second compound 0.0316 µM, first compound 0.000999 µM
  viability, T/C: 83.8%
Second compound 0.0316 µM, first compound 0.00316 µM
  viability, T/C: 80.2%
Second compound 0.0316 µM, first compound 0.00999 µM
  viability, T/C: 52%
[1]
  viability, T/C: 34.5%
Second compound 0.0316 µM, first compound 0.0999 µM
  viability, T/C: 27.9%
[3]
  viability, T/C: 5.52%
Second compound 0.1 µM, first compound 0.000999 µM
  viability, T/C: 52.9%
Second compound 0.1 µM, first compound 0.00316 µM
  viability, T/C: 43.2%
Second compound 0.1 µM, first compound 0.00999 µM
  viability, T/C: 38.6%
[7]
  viability, T/C: 36.9%
Second compound 0.1 µM, first compound 0.0999 µM
  viability, T/C: 29.8%
[9]
  viability, T/C: 6.34%
Second compound 0.316 µM, first compound 0.000999 µM
  viability, T/C: 27.3%
Second compound 0.316 µM, first compound 0.00316 µM
  viability, T/C: 16%
Second compound 0.316 µM, first compound 0.00999 µM
  viability, T/C: 15.3%
[13]
  viability, T/C: 22.8%
Second compound 0.316 µM, first compound 0.0999 µM
  viability, T/C: 25.1%
[15]
  viability, T/C: 5.41%
Second compound 1 µM, first compound 0.000999 µM
  viability, T/C: 17.4%
Second compound 1 µM, first compound 0.00316 µM
  viability, T/C: 14.9%
Second compound 1 µM, first compound 0.00999 µM
  viability, T/C: 19.2%
[19]
  viability, T/C: 15.4%
Second compound 1 µM, first compound 0.0999 µM
  viability, T/C: 13.9%
[21]
  viability, T/C: 0.1%
Second compound 3.16 µM, first compound 0.000999 µM
  viability, T/C: 19.2%
Second compound 3.16 µM, first compound 0.00316 µM
  viability, T/C: 17.6%
Second compound 3.16 µM, first compound 0.00999 µM
  viability, T/C: 0.21%
[25]
  viability, T/C: 0.22%
Second compound 3.16 µM, first compound 0.0999 µM
  viability, T/C: 0.15%
[27]
  viability, T/C: 0.13%
Second compound 10 µM, first compound 0.000999 µM
  viability, T/C: 0.17%
Second compound 10 µM, first compound 0.00316 µM
  viability, T/C: 0.17%
Second compound 10 µM, first compound 0.00999 µM
  viability, T/C: 0.24%
[31]
  viability, T/C: 0.22%
Second compound 10 µM, first compound 0.0999 µM
  viability, T/C: 0.22%
[33]
  viability, T/C: 0.23%

## O=C(NO)c1cnc(N2CCN(S(=O)(=O)c3ccc4ccccc4c3)CC2)nc1 + Cc1cnc(CNC(=O)c2c(=O)c3ccc(N4CCCN(C)CC4)nc3n3c2sc2ccccc23)cn1
Second compound 0.0316 µM
  IC50: 64.4 nM
Second compound 0.1 µM
  IC50: < 31.6 nM
Second compound 0.316 µM
  IC50: < 31.6 nM
Second compound 1 µM
  IC50: < 31.6 nM
Second compound 3.16 µM
  IC50: < 31.6 nM
Second compound 10 µM
  IC50: < 31.6 nM
[1]
  viability, T/C: 65.9%
[2]
  viability, T/C: 38.7%
[3]
  viability, T/C: 23.6%
[4]
  viability, T/C: 5.79%
[5]
  viability, T/C: 0.51%
[6]
  viability, T/C: 0.13%
[7]
  viability, T/C: 42.8%
[8]
  viability, T/C: 37.7%
[9]
  viability, T/C: 27.8%
[10]
  viability, T/C: 6.31%
[11]
  viability, T/C: 0.49%
[12]
  viability, T/C: 0.43%
[13]
  viability, T/C: 22.8%
[14]
  viability, T/C: 19.5%
[15]
  viability, T/C: 21.7%
[16]
  viability, T/C: 7.7%
[17]
  viability, T/C: 0.43%
[18]
  viability, T/C: 0.1%
[19]
  viability, T/C: 19.3%
[20]
  viability, T/C: 14.9%
[21]
  viability, T/C: 13.7%
[22]
  viability, T/C: 0.1%
[23]
  viability, T/C: 0.07%
[24]
  viability, T/C: 0.11%
[25]
  viability, T/C: 10%
[26]
  viability, T/C: 6.5%
[27]
  viability, T/C: 0.13%
[28]
  viability, T/C: 0.1%
[29]
  viability, T/C: 0.09%
[30]
  viability, T/C: 0.12%
[31]
  viability, T/C: 0.07%
[32]
  viability, T/C: 0.15%
[33]
  viability, T/C: 0.15%
[34]
  viability, T/C: 0.12%
[35]
  viability, T/C: 0.15%
[36]
  viability, T/C: 0.17%
